Results as given in US20100292085A1, “Methods and compositions for characterization of HSD1 inhibitors” (priority 2005, published 2010).

What was measured:
HSD1 [1] = target: T1, HSD1 (Homo sapiens, UniProt P28845); assay: In vivo efficacy of HSD1 inhibitor; set-up: host or cells: in vivo
SCD = assay: Off-target activity by SCD expression level (microarray); type: cell-based, human; conditions: HepG2/HSD1 cells, 10 μM forskolin, no cortisone, vs forskolin alone; microarray probe
Experimental: (§1) Total RNA isolated from cultured cell samples was used to make fluorescently labeled cRNA that was hybridized to DNA oligonucleotide microarrays as described previously (Hughes et al., supra., Marton et al., 1998, Nat. Med. 4:1293-301). Briefly, 4 μg of total RNA from each cell culture sample was used to synthesize dsDNA through RT. cRNA was produced by in vitro transcription and labeled postsynthetically with Cy3 or Cy5. Two populations oflabeled cRNA, a control population from vehicle/forskolin treated cells and an experimental population, i.e., cortisone/forskolin plus vehicle or plus HSD1 test compound, were compared with each other by competitive hybridization to microarrays. Two hybridizations were done with each cRNA sample pair using a fluorescent dye reversal strategy.
Each HSD1 inhibitor compound treated sample was compared to a forskolin alone cell sample. The HepG2/HSD1 cells used in these experiments were not contacted with cortisone.

HSD1 [2] = target: T1, HSD1; assay: Cortisone signature genes measured by RT-PCR (TAQman) in HepG2/HSD1 cells; type: cell-based; set-up: expressed in transfected cells
Experimental: (§2) HepG2 cells stably transfected with human HSD1, as previously described in Example 1, were plated in either 96 well or 24 well tissue culture plates. Cells were plated at a density of 6.25×10^5 cells/well on 24 well plates in 500 μl DMEM culture medium prepared as previously described. For the 96 well plates, the cells were plated at a density of 1×10^5 cells per well in 100 μl culture medium. The cells were incubated at 37° C. in a 5% CO2 atmosphere. After 24 hours, the culture medium was removed and the cells were pre-incubated with, either 250 μl (24 well plate) or 50 μl (96 well plate), Culture Medium containing 2× concentration of HSD1 inhibitor (14 μM) or vehicle for 20 min at 37° C. in a 5% CO2 atmosphere. Culture Medium (either 250 μl or 50 μl) containing 1000 nM cortisone (500 nM final concentration) or vehicle, and 20 μM forskolin (10 μM final concentration), was next added to the cells. The cells were further incubated for 20 hrs at 37° C. in a 5% CO2 atmosphere. All conditions were run in duplicates.
HepG2/HSD1 cells were lysed using Trizol reagent (Life Technologies, Grand Island, N.Y.). Total RNA was isolated from HepG2/HSD1 lysate using the RNeasy 96-Kit (Qiagen Inc., Valencia, Calif.) following the manufacturer's instructions, including the optional on-column removal of contaminating DNA step by RNase-free DNase I treatment. The RNA was reverse-transcribed to single stranded cDNA using random hexamer primers with TAQman reverse transcription reagents (Applied Biosystems, Foster City, Calif.).
The sequences of the TAQman primers and probes used to detect the target cDNAs were synthesized by Qiagen Operon (Alameda, Calif.) and are shown in Tables 8 and 9.
Oligonucleotide probes were labeled with the 6-FAM fluorophore at the 5′ end (FAM) and a non-fluorescent quencher at the 3′ end (NFQ). Real-time PCR was performed on human HepG2/HSD1 cDNA using the TaqMan Universal PCR Master Mix (Applied Biosystems, Foster City, Calif.) and appropriate primer/probe sets on an ABI Prism 7900HT Sequence Detection System (Applied Biosystems, Foster City, Calif.) in the 384-well format according to manufacturer's instructions. The levels of mRNA were normalized to the amount of 18S RNA detected in each sample using the Eukaryotic 18S rRNA Endogenous Control from Applied Biosystems. Levels of the target mRNAs in treated cells were calculated relative to the untreated cells.

HepG2/HSD1 cells [3] = assay: Identification of the off-target response signature by microarray (Table 6); type: cell-based, human
Source text: This off-target gene signature was not detected in other active HSD1 inhibitor compounds with in vivo efficacy. Monitoring for the off-target signature identified by 3-(2-chlorophenyl)-4-methyl-5-(4-pentylbicyclo[2.2.2]oct-1-yl)-4H-1,2,4-triazole in the HepG2 cells over-expressing HSD1 can improve characterization and selection of candidate HSD1 compounds prior to in vivo efficacy testing.
as §1, with “strategy. […]” for “strategy.”

HSD1 [4] = target: T1, HSD1; assay: HSD1 signature reversal activity: microarray of cortisone signature genes in HepG2/HSD1 cells; type: cell-based; set-up: expressed in transfected cells; conditions: slope of linear regression vs cortisone treatment alone (1.0 = no inhibition), Table 2 genes, 500 nM cortisone, 10 μM forskolin, inhibitor added as 2× concentration (14 μM), 20 hrs
Experimental: HepG2 human hepatoma cells stably transfected with human 11βHSD1 (HepG2/HSD1 cells) were plated at 2×10^6 cells per well on 6-well plates in 1 ml Culture Medium (DMEM with 2 mM L-Glutamine, 10% charcoal-dextran-treated FBS, 100 U/ml Penicillin, 100 μg/ml streptomycin, 10 μM sodium pyruvate, 100 μM non-essential amino acids, 0.003 N NaOH) at 37° C./5% CO2. After 24 hours, the Culture Medium was replaced with 500 μl Culture Medium containing 1000 nM cortisone (500 nM final concentration) and 20 μM forskolin (10 μM final concentration). The cells were incubated for 20 hrs at 37° C./5% CO2. Samples were run in triplicates. […]
(§3) After hybridization, arrays were scanned and fluorescence intensities for each probe were recorded. […] For each gene sequence present on the microarrays, statistical significance of differential gene expression was determined by calculating P values according to the following equation: […]
Gene expression changes in the cortisone signature genes were analyzed to further assess the degree to which HSD1-agents cause a reversal in the magnitude of the cortisone signature due to the degree of inhibition of HSD1 activity. Gene expression levels of the cortisone signature genes were measured in cortisone treated HepG2/HSD1 cells and HepG2/HSD1 cells treated with an HSD1-agent affecting HSD1 activity. […]

HSD1 [5] = target: T1, HSD1; assay: Direct measurement of HSD1 activity: 3H-cortisone conversion to cortisol by HPLC; type: cell-based; set-up: expressed in transfected cells
Experimental: Oxidoreductase Method: [1,2-^3H]-cortisone (48.7 Ci/mmol) was added to a final concentration of 20 nM to HepG2/HSD1 (2×10^6 cells/well in 6-well plates) and incubated for 1.5, 3, 6 and 22 hrs at 37° C. in culture medium (Dulbecco's Modified Eagle Medium with high glucose containing 2 mM L-glutamine, 10% fetal bovine serum, 100 U/ml penicillin, 100 μg/ml Streptomycin, 10 μM sodium pyruvate, 100 μM non-essential amino acids, 0.003 N NaOH and 0.8 mg/ml Geneticin). The samples (100 μl aliquots) were then extracted with 300 μl ethyl acetate and the upper, organic phases were dried. The dried organic extracts were then resuspended either in 100 μl DMSO for analysis by reverse-phase HPLC (buffer A=10% methanol/90% water; buffer B=90% methanol/10% water using a gradient from 20-45% Buffer B; YMC Combiscreen Pro C18 50 mm×4.6 mm column; flow rate 2.5 mL/min).
HSD1 activity was measured by spiking the incubation medium with ^3H-cortisone. After 21 hrs post compound treatment, conversion of the cortisone to cortisol was assessed by HPLC analysis.

HepG2/HSD1 cells [6] = assay: Off-target effects by microarray: number of genes changed, no cortisone; type: cell-based, human; conditions: number of genes changed vs forskolin alone
Experimental: as §1
The human microarrays used in this study contained 23,653 oligonucleotide probes corresponding to individual genes or expressed sequence tags. […]
as §3
HSD1 compounds were evaluated using microarray gene expression measurements obtained from HepG2/HSD1 cells under conditions where the cells were not treated with cortisone. […]

[7] = test system: off-target signature genes (SCD, DHCR7, ACLY, FBXO9, HEY1); assay: Off-target signature genes measured by RT-PCR (TAQman) in HepG2/HSD1 cells; type: cell-based, human
Experimental: as §2, with “All conditions were run in duplicates.” left out
Oligonucleotide probes were labeled with the 6-FAM fluorophore at the 5′ end (FAM) and a non-fluorescent quencher at the 3′ end (NFQ). […] The levels of mRNA were normalized to the amount of 18S RNA detected in each sample using the Eukaryotic 18S rRNA Endogenous Control from Applied Biosystems. Levels of the target mRNAs in treated cells were calculated relative to the untreated cells.

[8] = RT-PCR, 500 nM cortisone + 10 μM forskolin, 20 hrs, inhibitor added as 2× concentration (14 μM)

T1 sequence (P28845 whole entry): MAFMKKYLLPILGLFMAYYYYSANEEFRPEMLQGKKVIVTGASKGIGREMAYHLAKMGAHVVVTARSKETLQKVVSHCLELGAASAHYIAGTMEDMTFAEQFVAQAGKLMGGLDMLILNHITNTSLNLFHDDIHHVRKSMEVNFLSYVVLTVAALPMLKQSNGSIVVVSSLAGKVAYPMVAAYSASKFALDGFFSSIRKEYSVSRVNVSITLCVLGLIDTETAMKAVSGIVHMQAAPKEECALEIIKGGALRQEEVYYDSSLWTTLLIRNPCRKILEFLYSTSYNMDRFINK

CCCCCC12CCC(c3nnc(-c4ccccc4Cl)n3C)(CC1)CC2 [3-(2-chlorophenyl)-4-methyl-5-(4-pentylbicyclo[2.2.2]oct-1-yl)-4H-1,2,4-triazole]
efficacy in vivo (in words) (HSD1 [1]): failed to achieve significant efficacy in vivo
Log ratio of SCD gene expression (SCD): 0.45
G6PC Gene Transcript (Fold Change Relative to Vehicle Alone) (HSD1 [2]; [8]): 1.0 Fold Change
Homer-2 Gene Transcript (Fold Change Relative to Vehicle Alone) (HSD1 [2]; [8]): 1.5 Fold Change
LIPG Gene Transcript (Fold Change Relative to Vehicle Alone) (HSD1 [2]; [8]): 2.7 Fold Change
PGC Gene Transcript (Fold Change Relative to Vehicle Alone) (HSD1 [2]; [8]): 0.7 Fold Change
TAT Gene Transcript (Fold Change Relative to Vehicle Alone) (HSD1 [2]; [8]): 1.2 Fold Change
Average of five genes (cortisone signature, Fold Change Relative to Vehicle Alone) (HSD1 [2]; average of Homer-2, G6PC, PGC, TAT, LIPG): 1.4 Fold Change
off-target signature (Table 6) in HepG2 cell line over-expressing HSD1 (in words) (HepG2/HSD1 cells [3]; independent of cortisone treatment): exhibited off-target activity
off-target response signature, number of gene markers (HepG2/HSD1 cells [3]; p-value<0.01, no fold change cut-off, common to three replicate studies, compound + forskolin): 330
HSD1 Signature Reversal Activity Values (HSD1 [4]): 0.03
Percent Conversion to Cortisol (HSD1 [5]; 3H-cortisone spiked medium, 21 hrs post compound treatment, cortisone/forskolin, HPLC): 2%
Percent Conversion to Cortisol normalized to cortisone/forskolin value (HSD1 [5]; value in square brackets, cortisone/forskolin alone = 1.0): 0.05
off-target activity (in words, from Table 5 microarray data) (HepG2/HSD1 cells [6]): high levels of off-target activity
Average of five genes (off-target signature, Fold Change Relative to Vehicle Alone) [7]: 1.7 Fold Change
